In EP1283052A1, “Pharmaceutical composition containing caspase-8 and /or caspase-9 useful for overcoming glucocorticoid- and cancer therapy-induced apoptosis of tumours” (Deutsches Krebsforschungszentrum Stiftung des öffentlichen …, priority 2001, dated 2003) one finds tumour growth data, which are given here for one compound.

This test relates to P5 cells. Kind of test: P5 xenografts in nude mice, intratumoural therapy, tumour volume. Format: in vivo. Particulars: Fig. 7. The procedure:
P5 cells were injected subcutaneously in nude mice. At a tumour volume of 500 mm^3 therapy was started (day 0) and repeated at day 2 and 12 as indicated by arrows. A total volume of 100 µl in PBS was injected intratumoural containing liposomes and cisplatin (5mg/kg), or liposomes with cisplatin and a mixture of recombinant caspase-8 and -9 proteins (10 U each) and pcDNA3caspase-8 and pcDNA3caspase-9 expression vectors (10 µg each) in the absence (CIS) or presence of DEX (DEX/CIS), (DEX/CIS/CASPASES) in the drinking water (0.28 mg/L). As controls, tumour growth of xenografts from untreated mice (CO) or from mice which received liposomes and empty pcDNA3 expression vector only (CO/Liposomes) was determined. The tumour volume in each animal was measured every second day for a period of 16 days. […]
• (A) Cell culture. […] The mice were given 0.28 mg/L DEX in drinking water, and the amount of water consumed was monitored. […] The tumour volumes were measured using callipers, and calculated using, as an approximation, the formula for volume of a hemi-ellipsoid: π(width^2 x length)/6. […] Early apoptotic changes were identified by staining of cells with fluoresceinthiocyanate (FITC)-conjugated annexin V and propidium iodide (Becton Dickinson, Heidelberg, Germany) and analysed by flow cytometry (FACScan, Becton Dickinson) as described (Herr et al., EMBO J. 16 (1997), 6200-6208) • (E) Immunohistochemistry. […]

As to `N.N.[Cl][Pt][Cl]` [cisplatin], the tumour growth entry is “initially reduced” (cisplatin 5mg/kg with liposomes intratumoural, day 0, 2 and 12, initial phase); “developed resistance and started to grow” (cisplatin-treated tumours at day 10 after treatment).
